Activity calls are given as the source filed them.
Tests used:
[1] = inhibitors of Vif binding to APOBEC3G peptide, primary screen, biochemical, TR-FRET, GST-Vif 1-94, biotin-A3G peptide, dose response retest (AID 1117319); type: functional;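 further: TR-FRET signal of purified GST-Vif binding a biotinylated A3G peptide; inhibitors lower the FRET signal by blocking Vif and A3G binding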
[2] = molecular target: T1, 1-phosphatidylinositol 4,5-bisphosphate phosphodiesterase gamma-1 (Homo sapiens, UniProt P19174); test: Counterscreen for inhibitors of phospholipase C isozymes (PLC-B3): Fluorescence-based biochemical high throughput dose response assay to identify inhibitors of phospholipase C isozymes (PLC-gamma1).
T1 sequence (P19174 whole entry): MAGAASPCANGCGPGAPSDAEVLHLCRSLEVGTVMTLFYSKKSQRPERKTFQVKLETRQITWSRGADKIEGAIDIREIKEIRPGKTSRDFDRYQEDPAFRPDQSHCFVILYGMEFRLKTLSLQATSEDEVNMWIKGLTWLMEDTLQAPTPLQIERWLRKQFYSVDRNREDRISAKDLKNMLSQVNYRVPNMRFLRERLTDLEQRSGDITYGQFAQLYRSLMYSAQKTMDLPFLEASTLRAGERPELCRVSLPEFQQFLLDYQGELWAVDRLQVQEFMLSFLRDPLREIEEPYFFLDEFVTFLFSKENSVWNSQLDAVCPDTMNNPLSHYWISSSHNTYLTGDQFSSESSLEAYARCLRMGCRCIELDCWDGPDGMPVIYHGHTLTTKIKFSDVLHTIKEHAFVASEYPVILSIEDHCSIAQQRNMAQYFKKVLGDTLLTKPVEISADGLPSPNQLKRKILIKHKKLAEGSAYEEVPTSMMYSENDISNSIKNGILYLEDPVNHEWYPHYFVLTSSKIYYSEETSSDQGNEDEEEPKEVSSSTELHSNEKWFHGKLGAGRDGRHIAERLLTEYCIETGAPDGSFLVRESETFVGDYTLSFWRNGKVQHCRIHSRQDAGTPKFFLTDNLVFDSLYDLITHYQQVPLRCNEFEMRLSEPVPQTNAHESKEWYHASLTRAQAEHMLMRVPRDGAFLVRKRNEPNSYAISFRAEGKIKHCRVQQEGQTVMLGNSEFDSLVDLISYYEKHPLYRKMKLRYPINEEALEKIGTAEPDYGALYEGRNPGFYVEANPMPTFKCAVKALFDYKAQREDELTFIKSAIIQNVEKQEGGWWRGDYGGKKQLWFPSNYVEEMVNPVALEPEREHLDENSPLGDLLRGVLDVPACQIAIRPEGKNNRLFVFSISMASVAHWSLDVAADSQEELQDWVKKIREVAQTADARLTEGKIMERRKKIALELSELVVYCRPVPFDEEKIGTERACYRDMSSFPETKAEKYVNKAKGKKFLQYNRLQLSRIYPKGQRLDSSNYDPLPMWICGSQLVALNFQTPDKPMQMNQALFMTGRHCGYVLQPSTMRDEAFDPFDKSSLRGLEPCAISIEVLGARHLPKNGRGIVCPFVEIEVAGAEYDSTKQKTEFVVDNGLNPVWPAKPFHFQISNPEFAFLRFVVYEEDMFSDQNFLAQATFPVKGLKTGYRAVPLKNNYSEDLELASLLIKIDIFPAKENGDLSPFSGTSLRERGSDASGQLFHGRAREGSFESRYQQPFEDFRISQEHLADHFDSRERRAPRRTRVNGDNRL

[3] = molecular target: T2, 1-phosphatidylinositol 4,5-bisphosphate phosphodiesterase beta-3 (Homo sapiens, UniProt Q01970); test: Fluorescence-based biochemical high throughput dose response assay to identify inhibitors of phospholipase C isozymes (PLC-B3).
T2 sequence (Q01970 whole entry): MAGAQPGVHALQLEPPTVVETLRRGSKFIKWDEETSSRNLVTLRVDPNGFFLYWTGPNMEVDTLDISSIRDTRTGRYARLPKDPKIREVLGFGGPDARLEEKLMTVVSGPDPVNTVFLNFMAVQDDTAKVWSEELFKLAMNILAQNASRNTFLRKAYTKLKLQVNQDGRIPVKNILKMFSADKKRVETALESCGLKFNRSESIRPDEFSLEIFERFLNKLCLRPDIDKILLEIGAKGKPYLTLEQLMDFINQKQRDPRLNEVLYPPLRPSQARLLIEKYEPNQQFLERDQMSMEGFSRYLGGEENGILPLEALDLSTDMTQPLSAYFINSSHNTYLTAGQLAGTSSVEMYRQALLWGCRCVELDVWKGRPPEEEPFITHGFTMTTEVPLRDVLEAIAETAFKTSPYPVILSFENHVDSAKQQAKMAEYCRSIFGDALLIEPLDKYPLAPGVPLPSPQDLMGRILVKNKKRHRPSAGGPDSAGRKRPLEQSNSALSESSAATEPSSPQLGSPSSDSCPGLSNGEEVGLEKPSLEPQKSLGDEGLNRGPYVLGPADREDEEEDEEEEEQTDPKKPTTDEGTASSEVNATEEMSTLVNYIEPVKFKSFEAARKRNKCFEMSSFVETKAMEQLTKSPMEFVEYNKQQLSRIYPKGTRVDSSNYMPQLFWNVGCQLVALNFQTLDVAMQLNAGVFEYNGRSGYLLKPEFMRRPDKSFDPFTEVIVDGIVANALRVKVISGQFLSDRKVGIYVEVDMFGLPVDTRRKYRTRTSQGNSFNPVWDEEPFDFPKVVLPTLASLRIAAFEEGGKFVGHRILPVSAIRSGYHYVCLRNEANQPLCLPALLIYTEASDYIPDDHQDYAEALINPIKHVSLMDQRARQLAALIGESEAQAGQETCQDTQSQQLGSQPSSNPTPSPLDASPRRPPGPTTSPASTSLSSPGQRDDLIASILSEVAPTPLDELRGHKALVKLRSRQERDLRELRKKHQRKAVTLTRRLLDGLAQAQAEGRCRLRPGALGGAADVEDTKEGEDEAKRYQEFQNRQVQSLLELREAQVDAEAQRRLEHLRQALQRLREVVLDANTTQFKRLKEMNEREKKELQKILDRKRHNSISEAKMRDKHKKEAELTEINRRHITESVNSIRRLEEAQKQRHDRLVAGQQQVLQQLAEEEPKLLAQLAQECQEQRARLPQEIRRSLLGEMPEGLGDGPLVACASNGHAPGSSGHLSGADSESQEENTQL

[4] = molecular target: Peroxisome proliferator-activated receptor gamma/Nuclear receptor coactivator 1 (Homo sapiens, UniProt P37231); test: (§1) TR-FRET dose response biochemical High Throughput Screening assay for agonists of the steroid receptor coactivator 1 (SRC-1) recruitment by the peroxisome proliferator-activated receptor gamma (PPAR gamma): non-selective agonists. [Related pubchem assays (depositor defined):AID1300, AID1808, AID504735, AID631]; type: protein assay
[5] = molecular target: Peroxisome proliferator-activated receptor gamma/Nuclear receptor coactivator 3 (Homo sapiens, UniProt P37231); test: as §1, with “3 (SRC-3)” for “1 (SRC-1)”, “assays: 1301 (Confirmation screen.), 1048 (Primary screen.)]” for “assays (depositor defined):AID1300, AID1808, AID504735, AID631]”; type: functional
Peroxisome proliferator-activated receptor gamma/Nuclear receptor coactivator 3, sequence (P37231 whole entry): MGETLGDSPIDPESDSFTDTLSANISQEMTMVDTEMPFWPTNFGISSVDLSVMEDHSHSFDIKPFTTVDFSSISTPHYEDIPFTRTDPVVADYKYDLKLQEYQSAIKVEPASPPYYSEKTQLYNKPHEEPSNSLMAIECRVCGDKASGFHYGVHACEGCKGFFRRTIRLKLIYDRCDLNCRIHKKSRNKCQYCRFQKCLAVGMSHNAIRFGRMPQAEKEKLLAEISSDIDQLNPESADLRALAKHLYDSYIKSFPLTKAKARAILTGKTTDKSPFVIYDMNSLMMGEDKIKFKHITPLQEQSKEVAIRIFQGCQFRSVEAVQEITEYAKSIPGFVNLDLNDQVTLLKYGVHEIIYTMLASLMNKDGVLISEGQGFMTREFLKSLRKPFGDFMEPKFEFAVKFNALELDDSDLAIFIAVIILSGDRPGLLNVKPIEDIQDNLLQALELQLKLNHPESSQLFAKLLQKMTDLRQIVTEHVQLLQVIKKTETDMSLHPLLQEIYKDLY
Peroxisome proliferator-activated receptor gamma/Nuclear receptor coactivator 3, sequence (Q9Y6Q9 whole entry, further chain): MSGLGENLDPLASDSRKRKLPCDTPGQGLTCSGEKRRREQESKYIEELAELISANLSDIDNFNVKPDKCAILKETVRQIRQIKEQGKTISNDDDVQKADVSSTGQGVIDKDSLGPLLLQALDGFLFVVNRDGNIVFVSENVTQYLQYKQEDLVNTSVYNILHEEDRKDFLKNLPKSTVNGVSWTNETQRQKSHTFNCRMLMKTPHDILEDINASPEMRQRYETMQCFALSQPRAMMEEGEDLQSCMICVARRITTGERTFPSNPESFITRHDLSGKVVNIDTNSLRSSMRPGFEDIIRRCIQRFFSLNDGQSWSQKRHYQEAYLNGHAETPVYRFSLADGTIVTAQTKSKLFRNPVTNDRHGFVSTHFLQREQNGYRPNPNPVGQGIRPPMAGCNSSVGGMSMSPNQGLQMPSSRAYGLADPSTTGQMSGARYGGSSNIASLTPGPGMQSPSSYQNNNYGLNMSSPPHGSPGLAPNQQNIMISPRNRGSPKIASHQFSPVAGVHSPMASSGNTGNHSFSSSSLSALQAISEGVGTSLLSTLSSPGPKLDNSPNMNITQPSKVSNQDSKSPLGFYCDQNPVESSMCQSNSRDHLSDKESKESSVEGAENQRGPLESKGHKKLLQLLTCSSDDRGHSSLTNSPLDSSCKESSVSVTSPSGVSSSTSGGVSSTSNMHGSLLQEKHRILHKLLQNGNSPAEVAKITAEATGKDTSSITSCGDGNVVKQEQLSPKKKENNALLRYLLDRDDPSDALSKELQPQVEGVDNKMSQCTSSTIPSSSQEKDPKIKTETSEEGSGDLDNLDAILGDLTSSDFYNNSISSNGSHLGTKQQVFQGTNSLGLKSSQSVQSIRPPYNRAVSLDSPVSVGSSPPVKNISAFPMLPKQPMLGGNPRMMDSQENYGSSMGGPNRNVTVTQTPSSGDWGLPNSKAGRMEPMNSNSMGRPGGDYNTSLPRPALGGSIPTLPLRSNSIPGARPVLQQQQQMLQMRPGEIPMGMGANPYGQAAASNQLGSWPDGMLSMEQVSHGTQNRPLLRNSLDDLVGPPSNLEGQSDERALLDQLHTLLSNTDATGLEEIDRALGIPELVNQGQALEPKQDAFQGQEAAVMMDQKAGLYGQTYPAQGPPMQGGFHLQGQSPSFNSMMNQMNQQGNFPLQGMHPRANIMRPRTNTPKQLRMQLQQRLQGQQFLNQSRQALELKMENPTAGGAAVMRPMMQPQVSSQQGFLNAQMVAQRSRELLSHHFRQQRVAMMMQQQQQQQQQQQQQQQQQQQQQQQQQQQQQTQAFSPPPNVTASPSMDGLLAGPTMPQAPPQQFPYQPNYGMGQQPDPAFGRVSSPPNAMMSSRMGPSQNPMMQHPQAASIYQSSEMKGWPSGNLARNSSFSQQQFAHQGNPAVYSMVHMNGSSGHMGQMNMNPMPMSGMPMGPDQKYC

[6] = molecular target: Peroxisome proliferator-activated receptor gamma/Nuclear receptor coactivator 2 (Homo sapiens, UniProt P37231); test: TR-FRET dose response biochemical High Throughput Screening assay for agonists of the steroid receptor coactivator 2 (SRC-2) recruitment by the peroxisome proliferator-activated receptor gamma (PPAR gamma): non-selective agonists. [Related pubchem assays: 1297, 1032 ]; type: functional
Peroxisome proliferator-activated receptor gamma/Nuclear receptor coactivator 2, sequence (P37231 whole entry): as the sequence (P37231 whole entry) above
Peroxisome proliferator-activated receptor gamma/Nuclear receptor coactivator 2, sequence (Q15596 whole entry, further chain): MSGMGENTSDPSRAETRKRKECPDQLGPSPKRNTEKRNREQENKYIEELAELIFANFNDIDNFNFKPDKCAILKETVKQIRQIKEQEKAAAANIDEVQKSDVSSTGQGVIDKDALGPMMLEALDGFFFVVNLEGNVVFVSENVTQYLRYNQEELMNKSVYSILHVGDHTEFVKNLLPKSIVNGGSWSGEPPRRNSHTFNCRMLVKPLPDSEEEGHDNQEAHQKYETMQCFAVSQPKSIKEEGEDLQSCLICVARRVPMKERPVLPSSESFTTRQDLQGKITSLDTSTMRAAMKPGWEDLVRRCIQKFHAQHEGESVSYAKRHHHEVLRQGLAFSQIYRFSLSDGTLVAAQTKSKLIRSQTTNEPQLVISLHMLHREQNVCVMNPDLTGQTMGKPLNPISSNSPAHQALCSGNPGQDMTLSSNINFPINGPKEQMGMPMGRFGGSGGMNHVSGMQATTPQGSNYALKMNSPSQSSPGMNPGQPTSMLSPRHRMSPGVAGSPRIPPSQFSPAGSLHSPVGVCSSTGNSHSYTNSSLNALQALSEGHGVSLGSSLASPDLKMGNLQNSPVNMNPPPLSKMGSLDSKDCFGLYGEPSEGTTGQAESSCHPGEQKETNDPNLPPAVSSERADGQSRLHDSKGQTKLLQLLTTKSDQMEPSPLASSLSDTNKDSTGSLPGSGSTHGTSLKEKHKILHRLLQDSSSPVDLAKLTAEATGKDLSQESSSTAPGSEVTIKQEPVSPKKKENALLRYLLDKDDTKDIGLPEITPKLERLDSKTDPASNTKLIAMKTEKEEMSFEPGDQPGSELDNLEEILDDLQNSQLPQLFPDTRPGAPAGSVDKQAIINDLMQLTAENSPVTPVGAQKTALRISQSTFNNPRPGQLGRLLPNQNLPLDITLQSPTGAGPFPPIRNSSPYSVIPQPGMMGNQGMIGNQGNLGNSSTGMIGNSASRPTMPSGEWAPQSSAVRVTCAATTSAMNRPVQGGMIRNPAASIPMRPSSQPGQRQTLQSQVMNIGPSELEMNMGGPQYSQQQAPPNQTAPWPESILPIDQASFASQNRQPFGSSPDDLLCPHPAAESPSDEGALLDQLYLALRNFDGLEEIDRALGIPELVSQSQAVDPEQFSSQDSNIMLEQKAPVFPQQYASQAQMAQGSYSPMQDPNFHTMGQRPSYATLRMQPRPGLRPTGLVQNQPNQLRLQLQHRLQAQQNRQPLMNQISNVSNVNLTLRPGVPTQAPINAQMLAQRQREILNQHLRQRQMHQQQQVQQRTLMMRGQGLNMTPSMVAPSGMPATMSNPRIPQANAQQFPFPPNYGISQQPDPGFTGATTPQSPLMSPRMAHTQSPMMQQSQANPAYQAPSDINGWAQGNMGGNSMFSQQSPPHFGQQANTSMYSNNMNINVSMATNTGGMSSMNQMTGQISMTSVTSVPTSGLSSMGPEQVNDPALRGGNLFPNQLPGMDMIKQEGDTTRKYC

Protein skinhead-1 = molecular target: T3, Protein skinhead-1 (Caenorhabditis elegans, UniProt P34707); type: functional
T3 sequence (P34707 whole entry): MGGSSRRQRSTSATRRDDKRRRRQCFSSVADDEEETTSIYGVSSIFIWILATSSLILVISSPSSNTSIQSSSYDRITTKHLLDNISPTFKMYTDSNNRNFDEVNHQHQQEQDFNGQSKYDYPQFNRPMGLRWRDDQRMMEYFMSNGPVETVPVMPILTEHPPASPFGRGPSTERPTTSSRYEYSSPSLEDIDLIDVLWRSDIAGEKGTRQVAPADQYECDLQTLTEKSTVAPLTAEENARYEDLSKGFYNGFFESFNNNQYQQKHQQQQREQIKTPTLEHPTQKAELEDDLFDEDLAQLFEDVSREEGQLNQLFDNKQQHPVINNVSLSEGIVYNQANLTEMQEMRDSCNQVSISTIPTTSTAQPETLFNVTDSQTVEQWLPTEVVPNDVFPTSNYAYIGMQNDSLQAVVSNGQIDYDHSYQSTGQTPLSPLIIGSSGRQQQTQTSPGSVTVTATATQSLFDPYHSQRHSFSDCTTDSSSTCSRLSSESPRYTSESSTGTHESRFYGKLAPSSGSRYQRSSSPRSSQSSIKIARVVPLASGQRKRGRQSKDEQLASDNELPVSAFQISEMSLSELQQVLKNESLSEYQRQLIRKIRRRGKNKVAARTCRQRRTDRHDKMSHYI

Major prion protein = Major prion protein (Homo sapiens, UniProt P04156); type: functional, cell-based
[7] = tested on: Streptococcus sp. 'group A'; test: growth inhibition of control SK(-) GAS strain, dose response, counter-screen for streptokinase expression inhibitor project, luminescence, kanamycin, BacTiterGlo, confirmation (AID 1900); type: functional, organism-based
Streptokinase A = molecular target: T4, Streptokinase A (Streptococcus pyogenes serotype M1, UniProt P10520); test: S. pyogenes streptokinase expression inhibitors, potency, dose response, plasminogen activation absorbance, OD405 (AID 1914); type: functional, Streptococcus pyogenes M1 GAS;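 further: secreted streptokinase activity via plasminogen activation per viability signal from cell pellet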
T4 sequence (P10520 whole entry): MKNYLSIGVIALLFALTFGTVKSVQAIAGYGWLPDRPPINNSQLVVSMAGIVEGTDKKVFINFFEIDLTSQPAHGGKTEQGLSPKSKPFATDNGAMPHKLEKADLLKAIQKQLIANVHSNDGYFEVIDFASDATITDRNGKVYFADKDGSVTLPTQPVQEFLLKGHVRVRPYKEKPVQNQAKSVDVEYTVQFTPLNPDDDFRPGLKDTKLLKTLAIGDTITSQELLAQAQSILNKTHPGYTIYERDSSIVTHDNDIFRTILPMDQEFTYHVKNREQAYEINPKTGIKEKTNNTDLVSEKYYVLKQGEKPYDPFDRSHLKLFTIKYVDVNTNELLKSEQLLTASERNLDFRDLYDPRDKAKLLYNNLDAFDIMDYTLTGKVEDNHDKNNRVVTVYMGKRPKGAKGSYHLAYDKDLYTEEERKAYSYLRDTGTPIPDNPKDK

Streptococcus = test: Group A Streptococcus viability loss, dose response, counter-screen for streptokinase expression inhibitor project, luminescence, BacTiterGlo (AID 1915); type: functional, organism-based;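 further: potency for reduction of bacterial viability or growth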
[8] = molecular target: Induced myeloid leukemia cell differentiation protein Mcl-1 (Homo sapiens, UniProt Q07820); type: functional
Induced myeloid leukemia cell differentiation protein Mcl-1, sequence (Q07820 whole entry): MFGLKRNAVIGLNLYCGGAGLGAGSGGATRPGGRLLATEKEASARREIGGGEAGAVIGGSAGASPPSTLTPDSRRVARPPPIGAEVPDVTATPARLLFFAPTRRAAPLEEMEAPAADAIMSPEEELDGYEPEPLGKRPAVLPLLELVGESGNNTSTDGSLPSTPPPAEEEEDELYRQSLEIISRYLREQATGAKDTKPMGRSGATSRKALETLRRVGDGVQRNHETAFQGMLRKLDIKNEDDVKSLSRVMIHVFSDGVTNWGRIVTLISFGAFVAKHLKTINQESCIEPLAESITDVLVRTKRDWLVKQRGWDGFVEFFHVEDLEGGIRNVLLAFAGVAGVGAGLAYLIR

[9] = molecular target: Eukaryotic translation initiation factor 4E (Mus musculus, UniProt P63073); test: eIF4E–eIF4G protein interaction inhibitors, dose response, biochemical, TR-FRET (AID 855); type: functional;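 further: potency for disrupting eIF4E binding to eIF4GI seen as loss of FRET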
Eukaryotic translation initiation factor 4E, sequence (P63073 whole entry, the tested form may be a part): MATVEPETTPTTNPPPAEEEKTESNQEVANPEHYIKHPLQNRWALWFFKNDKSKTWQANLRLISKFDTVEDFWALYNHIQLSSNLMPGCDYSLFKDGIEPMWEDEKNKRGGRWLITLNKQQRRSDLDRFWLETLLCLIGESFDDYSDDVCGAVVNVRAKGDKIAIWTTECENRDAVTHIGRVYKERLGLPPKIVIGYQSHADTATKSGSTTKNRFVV

[10] = molecular target: T5, Carboxy-terminal domain RNA polymerase II polypeptide A small phosphatase 1 (Homo sapiens, UniProt Q9GZU7); test: inhibitors of CTDSP1, concentration-response testing, biochemical assay, absorbance-based, actives from ultra-high-throughput screening (AID 540297); type: functional
T5 sequence (Q9GZU7 whole entry): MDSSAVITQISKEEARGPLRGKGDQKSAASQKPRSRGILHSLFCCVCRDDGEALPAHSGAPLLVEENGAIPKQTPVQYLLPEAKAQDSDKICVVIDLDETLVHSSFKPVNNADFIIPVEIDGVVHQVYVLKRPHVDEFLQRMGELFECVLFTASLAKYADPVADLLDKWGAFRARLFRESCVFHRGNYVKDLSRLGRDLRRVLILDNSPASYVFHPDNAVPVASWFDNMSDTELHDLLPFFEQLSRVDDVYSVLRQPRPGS

Caspase-6 = molecular target: T6, Caspase-6 (Homo sapiens, UniProt P55212); test: human caspase-6 inhibitors, dose response, biochemical, VEID-R110 fluorescence, cherry-pick (AID 720632)
T6 sequence (P55212 whole entry): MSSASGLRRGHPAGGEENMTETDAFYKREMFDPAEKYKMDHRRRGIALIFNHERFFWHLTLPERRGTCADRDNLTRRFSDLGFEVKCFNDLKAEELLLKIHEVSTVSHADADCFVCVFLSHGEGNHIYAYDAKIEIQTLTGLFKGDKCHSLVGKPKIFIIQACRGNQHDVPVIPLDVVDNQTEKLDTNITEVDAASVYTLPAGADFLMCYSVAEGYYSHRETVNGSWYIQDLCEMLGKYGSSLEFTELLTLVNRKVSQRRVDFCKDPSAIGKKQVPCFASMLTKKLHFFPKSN

[11] = molecular target: DNA dC->dU-editing enzyme APOBEC-3A (Homo sapiens, UniProt P31941); test: Dose Response confirmation of small molecule APOBEC3A DNA Deaminase Inhibitors via a fluorescence-based single-stranded DNA deaminase assay. [Related pubchem assays (depositor defined):AID493011, AID493024]; type: functional
DNA dC->dU-editing enzyme APOBEC-3A, sequence (P31941 whole entry): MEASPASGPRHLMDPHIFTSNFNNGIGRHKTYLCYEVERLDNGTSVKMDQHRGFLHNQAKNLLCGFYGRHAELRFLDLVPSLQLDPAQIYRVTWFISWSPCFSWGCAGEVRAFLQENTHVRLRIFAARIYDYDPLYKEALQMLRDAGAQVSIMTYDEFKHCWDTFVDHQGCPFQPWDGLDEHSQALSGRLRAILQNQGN

[12] = molecular target: DNA dC->dU-editing enzyme APOBEC-3G (Homo sapiens, UniProt Q9HC16); type: functional;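 further: Dose-response counterscreen measuring inhibition of APOBEC3G DNA deaminase activity, run while confirming APOBEC3A inhibitors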
DNA dC->dU-editing enzyme APOBEC-3G, sequence (Q9HC16 whole entry): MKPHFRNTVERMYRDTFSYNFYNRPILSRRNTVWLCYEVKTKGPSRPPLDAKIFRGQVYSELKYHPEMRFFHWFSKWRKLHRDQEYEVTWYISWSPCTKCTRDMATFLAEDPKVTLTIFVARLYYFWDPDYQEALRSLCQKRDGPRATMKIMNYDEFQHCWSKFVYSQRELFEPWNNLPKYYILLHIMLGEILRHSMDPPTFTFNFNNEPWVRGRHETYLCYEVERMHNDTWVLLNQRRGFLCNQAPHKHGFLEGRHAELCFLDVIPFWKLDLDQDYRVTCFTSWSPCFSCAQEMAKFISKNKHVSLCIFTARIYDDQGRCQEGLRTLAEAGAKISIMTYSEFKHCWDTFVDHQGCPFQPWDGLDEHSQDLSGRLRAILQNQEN

## COc1ccccc1N1CCN(C(=O)c2cc(-c3cccs3)on2)CC1
[1]
  IC50: > 100 µM (active)

## CC(=O)c1ccc(Nc2nc(=O)c3cccnc3s2)cc1
[1]
  IC50: > 100 µM (active)

## CCOc1cccc(C(=O)Nc2ccc(NC(=O)c3ccccc3)c(C)c2)c1
[2]
  IC50: > 122 µM (inactive)
[3]
  IC50: > 122 µM (inactive)

## Cc1cc2cc(CNC(=O)c3ccc(S(=O)(=O)N4CCCC4)cc3)ccc2n1C
[4]
  EC50: 3.68 µM (active)
[5]
  EC50: 8.02 µM (active)
[6]
  EC50: 3.91 µM (active)
Protein skinhead-1
  IC50: > 100 µM (inactive)
Major prion protein
  IC50: 21.5 µM (inactive)
cells
  IC50: > 138 µM (inactive)

## O=C(CC1S/C(=N\c2ccccc2)N(CCc2c[nH]c3ccccc23)C1=O)Nc1ccccc1F (stereo unspecified)
[7]
  EC50: 13.2 µM (active)
Streptokinase A
  EC50: 14 µM (inconclusive)
Streptococcus
  EC50: 43.5 µM (active)
[2]
  IC50: > 122 µM (inactive)
[3]
  IC50: > 122 µM (inactive)

## CCOC(=O)C1CCN(S(=O)(=O)c2cccc(-c3cn4cccc(C)c4n3)c2)CC1
[1]
  IC50: > 100 µM (active)

## O=C(CSc1ccsc1[N+](=O)[O-])Nc1cc(F)ccc1F
[8]
  IC50: 6.52 µM (not active)
[9]
  IC50: 28.4 µM (active)
[10]
  IC50: 2.76 µM (active)
Caspase-6
  AC50: 5.74 µM (active)

## CC1(CC(=O)N/N=C/c2cc([N+](=O)[O-])c(O)cc2O)OCCO1
[11]
  IC50: 19.3 µM (active)
[12]
  IC50: 41 µM (active)
[10]
  IC50: 4.41 µM (active)
Caspase-6
  AC50: 23.7 µM (active)
[2]
  IC50: > 122 µM (inactive)
[3]
  IC50: > 122 µM (inactive)

— ChEMBL document CHEMBL1201862, “PubChem BioAssay data set” (2004)
